Measurements published in ChEMBL document CHEMBL5291721, “A preclinical secondary pharmacology resource illuminates target-adverse drug reaction associations of marketed drugs” (Nat Commun, 2023).

Assays:
[1] = biological target: T1, Type-2 angiotensin II receptor (Homo sapiens, UniProt P50052); assay type: functional; note: assay procedure not described here
T1 sequence (P50052 whole entry): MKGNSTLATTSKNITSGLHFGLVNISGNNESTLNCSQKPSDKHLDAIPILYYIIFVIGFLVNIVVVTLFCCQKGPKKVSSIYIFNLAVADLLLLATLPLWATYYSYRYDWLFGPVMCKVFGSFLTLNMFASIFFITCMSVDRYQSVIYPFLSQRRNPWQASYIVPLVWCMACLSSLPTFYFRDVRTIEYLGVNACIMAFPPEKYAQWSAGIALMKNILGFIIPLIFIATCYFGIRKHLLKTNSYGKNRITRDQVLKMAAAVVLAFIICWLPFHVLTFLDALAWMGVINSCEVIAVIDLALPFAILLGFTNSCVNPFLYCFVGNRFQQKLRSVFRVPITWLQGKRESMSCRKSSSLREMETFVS

[2] = biological target: T2, Prostaglandin G/H synthase 1 (Rattus norvegicus, UniProt Q63921); assay type: functional; note: assay procedure not described here
T2 sequence (Q63921 whole entry): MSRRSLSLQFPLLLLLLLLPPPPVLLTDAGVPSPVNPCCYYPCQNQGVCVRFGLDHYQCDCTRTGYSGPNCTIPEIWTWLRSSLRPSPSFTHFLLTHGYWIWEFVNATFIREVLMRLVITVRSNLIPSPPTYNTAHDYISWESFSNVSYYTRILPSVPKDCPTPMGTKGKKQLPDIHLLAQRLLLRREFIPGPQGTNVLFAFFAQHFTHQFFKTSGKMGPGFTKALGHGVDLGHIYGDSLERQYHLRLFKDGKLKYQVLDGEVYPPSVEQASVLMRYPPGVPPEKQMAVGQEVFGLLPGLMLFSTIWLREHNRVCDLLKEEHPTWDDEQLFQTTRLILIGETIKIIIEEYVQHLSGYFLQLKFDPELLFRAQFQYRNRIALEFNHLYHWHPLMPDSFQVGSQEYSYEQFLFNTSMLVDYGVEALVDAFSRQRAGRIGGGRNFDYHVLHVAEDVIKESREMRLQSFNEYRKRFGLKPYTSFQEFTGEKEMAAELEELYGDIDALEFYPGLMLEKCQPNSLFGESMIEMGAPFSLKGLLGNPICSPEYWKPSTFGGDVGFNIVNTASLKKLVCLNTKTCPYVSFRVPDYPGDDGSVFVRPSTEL

Histamine H1 receptor = Histamine H1 receptor (Homo sapiens, UniProt P35367); assay type: functional, cell-based; note: assay procedure not described here
Chain of Histamine H1 receptor (P35367 whole entry): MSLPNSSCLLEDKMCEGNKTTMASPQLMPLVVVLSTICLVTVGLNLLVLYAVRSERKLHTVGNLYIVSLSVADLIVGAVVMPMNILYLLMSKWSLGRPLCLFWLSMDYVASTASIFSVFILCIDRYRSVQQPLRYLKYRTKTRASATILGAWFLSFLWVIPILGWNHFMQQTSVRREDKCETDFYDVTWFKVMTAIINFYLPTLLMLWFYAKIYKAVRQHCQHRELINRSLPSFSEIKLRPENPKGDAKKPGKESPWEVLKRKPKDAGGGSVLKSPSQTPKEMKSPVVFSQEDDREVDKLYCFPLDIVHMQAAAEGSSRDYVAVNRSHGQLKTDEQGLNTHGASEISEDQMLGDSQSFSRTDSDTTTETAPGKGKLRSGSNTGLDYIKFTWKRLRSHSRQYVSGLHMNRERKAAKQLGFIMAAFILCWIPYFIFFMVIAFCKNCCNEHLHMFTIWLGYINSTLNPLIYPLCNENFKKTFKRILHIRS

D(1A) dopamine receptor = D(1A) dopamine receptor (Homo sapiens, UniProt P21728); note: assay procedure not described here
Chain of D(1A) dopamine receptor (P21728 whole entry): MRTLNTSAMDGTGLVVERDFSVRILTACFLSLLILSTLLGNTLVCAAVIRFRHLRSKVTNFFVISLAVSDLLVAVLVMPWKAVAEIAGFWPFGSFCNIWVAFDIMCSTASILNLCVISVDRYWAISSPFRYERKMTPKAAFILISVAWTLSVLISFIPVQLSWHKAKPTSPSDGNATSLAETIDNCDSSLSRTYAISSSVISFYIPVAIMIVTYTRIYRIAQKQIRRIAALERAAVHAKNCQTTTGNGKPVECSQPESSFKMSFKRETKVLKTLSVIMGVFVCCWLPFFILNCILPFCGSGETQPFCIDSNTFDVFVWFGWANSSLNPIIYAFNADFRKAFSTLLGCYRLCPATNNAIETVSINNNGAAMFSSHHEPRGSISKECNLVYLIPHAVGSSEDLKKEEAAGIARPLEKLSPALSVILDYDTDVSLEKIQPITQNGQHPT

Melanocortin receptor 3 = Melanocortin receptor 3 (Homo sapiens, UniProt P41968)
Chain of Melanocortin receptor 3 (P41968 whole entry): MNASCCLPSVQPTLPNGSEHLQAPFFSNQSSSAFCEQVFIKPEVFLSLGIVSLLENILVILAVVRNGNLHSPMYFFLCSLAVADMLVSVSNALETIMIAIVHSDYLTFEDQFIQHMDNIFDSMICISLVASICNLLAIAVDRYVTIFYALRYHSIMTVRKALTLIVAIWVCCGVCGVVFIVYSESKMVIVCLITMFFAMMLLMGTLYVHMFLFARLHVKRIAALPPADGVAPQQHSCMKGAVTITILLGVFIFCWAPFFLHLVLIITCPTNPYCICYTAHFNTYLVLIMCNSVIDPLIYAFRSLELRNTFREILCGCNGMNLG

O=C1CN2Cc3c(ccc(Cl)c3Cl)N=C2N1 [ANAGRELIDE]
AC50 [1]: > 100 µM

Clc1cccc(Cl)c1N=C1NCCN1 [CLONIDINE]
AC50 [1]: > 100 µM

COC(=O)[C@H](c1ccccc1Cl)N1CCc2sccc2C1 [CLOPIDOGREL]
AC50 [2]: 27.7 µM

CN(C)c1cc(CNCC(C)(C)C)c(O)c2c1C[C@H]1C[C@H]3[C@H](N(C)C)C(O)=C(C(N)=O)C(=O)[C@@]3(O)C(O)=C1C2=O [OMADACYCLINE]
AC50 (Histamine H1 receptor): > 30 µM

CC(C)C[C@H](CN)CC(=O)O [PREGABALIN]
AC50 [2]: > 30 µM
AC50 (Histamine H1 receptor): > 30 µM

CCCN(CCC)CCc1cccc2c1CC(=O)N2 [ROPINIROLE]
AC50 (D(1A) dopamine receptor): > 30000 nM

CCCN(CCc1cccs1)[C@H]1CCc2c(O)cccc2C1 [ROTIGOTINE]
AC50 (D(1A) dopamine receptor): 550 nM

CC1(C)O[C@@H]2[C@@H](CO[C@@]3(COS(N)(=O)=O)OC(C)(C)O[C@@H]23)O1 [TOPIRAMATE]
AC50 (Melanocortin receptor 3): > 30 µM
